27 molecules from patent publication US20100010219A1, “METHOD FOR PRODUCING PYRROLIDINE COMPOUND” (JAPAN TOBACCO INC., priority 2006, published 2010) can be followed below.

Each structure is given as a SMILES string. Counter-ions that a name gives are not always drawn. Bounds are passed on as bounds.

In the assay the target is T1, human HSD-1 (recombinant HSD-1) (Homo sapiens, UniProt P28845).
T1 construct: made in house
T1 sequence (P28845 whole entry): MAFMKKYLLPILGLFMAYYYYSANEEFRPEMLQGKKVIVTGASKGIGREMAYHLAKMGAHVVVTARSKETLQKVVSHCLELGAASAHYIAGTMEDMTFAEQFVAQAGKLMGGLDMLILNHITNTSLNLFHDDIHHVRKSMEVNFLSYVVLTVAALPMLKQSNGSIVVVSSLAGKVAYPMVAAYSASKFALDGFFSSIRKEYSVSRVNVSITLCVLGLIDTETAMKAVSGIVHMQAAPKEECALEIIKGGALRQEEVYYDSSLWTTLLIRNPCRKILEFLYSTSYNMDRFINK
In words: HSD-1 activity inhibitory action in vitro (SPA, conversion of cortisone to cortisol). The format is biochemical. The note with it: recombinant human HSD-1 expressed using baculovirus system; 10 nM 3H cortisone, 500 μM NADPH; room temperature 90 to 120 min; read-out: hHSD1 (IC50 (nM)).
Turning to `COC(=O)N1CCC(n2ncc(C(=O)N3CC[C@@H](c4ccccc4C(F)(F)F)C3)c2C2CC2)CC1` [Example 57, 1-[5-cyclopropyl-1-(1-methoxycarbonylpiperidin-4-yl)-1H-pyrazole-4-carbonyl]-[(S)-3-(2-trifluoromethylphenyl)]pyrrolidine], the IC50 was under 30 nM.

As to `O=C(c1cnn(C2CCN(C(=O)C3(c4ccc(F)cc4)CC3)CC2)c1C1CC1)N1CC[C@@H](c2ccccc2C(F)(F)F)C1` [Example 66, 1-(5-cyclopropyl-1-{1-[1-(4-fluorophenyl)cyclopropanecarbonyl]piperidin-4-yl}-1H-pyrazole-4-carbonyl)-[(S)-3-(2-trifluoromethylphenyl)]pyrrolidine], the IC50 is under 30 nM.

As for `NC(=O)C1CCN(C(=O)N2CCC(n3ncc(C(=O)N4CC[C@@H](c5ccccc5C(F)(F)F)C4)c3C3CC3)CC2)CC1` [Example 33, 1-{1-[1-(4-carbamoylpiperidine-1-carbonyl)piperidin-4-yl]-5-cyclopropyl-1H-pyrazole-4-carbonyl}-[(S)-3-(2-trifluoromethylphenyl)]pyrrolidine], the IC50 was under 30 nM.

Take `O=C(Nc1ccc(C(F)(F)F)cc1)N1CCC(n2ncc(C(=O)N3CCC(c4ccccc4C(F)(F)F)C3)c2C2CC2)CC1` (stereo not drawn) [Example 141, 1-{5-cyclopropyl-1-[1-(4-trifluoromethylphenylcarbamoyl)piperidin-4-yl]-1H-pyrazole-4-carbonyl}-3-(2-trifluoromethylphenyl)pyrrolidine]: the IC50 is under 30 nM.

As for `O=C(c1cnn(C2CCN(C(=O)C3(CO)CC3)CC2)c1C1CC1)N1CC[C@@H](c2ccccc2C(F)(F)F)C1` [Example 78, 1-{5-cyclopropyl-1-[1-(1-hydroxymethylcyclopropanecarbonyl)piperidin-4-yl]-1H-pyrazole-4-carbonyl}-[(S)-3-(2-trifluoromethylphenyl)]pyrrolidine], the IC50 is under 30 nM.

For `NCCC(=O)N1CCC(n2ncc(C(=O)N3CC[C@@H](c4ccccc4C(F)(F)F)C3)c2C2CC2)CC1` [Example 83, 1-{1-[1-(3-aminopropionyl)piperidin-4-yl]-5-cyclopropyl-1H-pyrazole-4-carbonyl}-[(S)-3-(2-trifluoromethylphenyl)]pyrrolidine hydrochloride], the IC50 was under 30 nM.

Turning to `CC(=O)OCCC1(c2ccc(F)cc2)CCN(C(=O)c2cnn(C3CCN(c4ncccn4)CC3)c2C2(C)CC2)C1` (stereo not drawn) [Example 176, 3-(2-acetoxyethyl)-3-(4-fluorophenyl)-1-{5-(1-methylcyclopropyl)-1-[1-(pyrimidin-2-yl)piperidin-4-yl]-1H-pyrazole-4-carbonyl}pyrrolidine hydrochloride], the IC50 was under 30 nM.

`N#C/N=C(\N)N1CCC(n2ncc(C(=O)N3CC[C@@H](c4ccccc4C(F)(F)F)C3)c2C2CC2)CC1` [Example 112, 1-{1-[1-(N-cyanocarbamimidoyl)piperidin-4-yl]-5-cyclopropyl-1H-pyrazole-4-carbonyl}-[(S)-3-(2-trifluoromethylphenyl)]pyrrolidine]: the IC50 was under 30 nM.

For `O=C(c1cnn(C2CCN(C(=O)N3CC[C@@H](O)C3)CC2)c1C1CC1)N1CC[C@@H](c2ccccc2C(F)(F)F)C1` [Example 21, 1-(5-cyclopropyl-1-{1-[(R)-3-hydroxypyrrolidine-1-carbonyl]piperidin-4-yl}-1H-pyrazole-4-carbonyl)-[(S)-3-(2-trifluoromethylphenyl)]pyrrolidine], the IC50 was under 30 nM.

Take `O=C(c1cnn(C2CCN(C(=O)C3CC3)CC2)c1C1CC1)N1CC[C@@H](c2ccccc2C(F)(F)F)C1` [Example 64, 1-[1-(1-cyclopropanecarbonylpiperidin-4-yl)-5-cyclopropyl-1H-pyrazole-4-carbonyl]-[(S)-3-(2-trifluoromethylphenyl)]pyrrolidine]: the IC50 was under 30 nM.

In the case of `Nc1ccc(N2CCC(n3ncc(C(=O)N4CCC(c5ccccc5C(F)(F)F)C4)c3C3CC3)CC2)cc1` (stereo not drawn) [Example 168, 1-{1-[1-(4-aminophenyl)piperidin-4-yl]-5-cyclopropyl-1H-pyrazole-4-carbonyl}-3-(2-trifluoromethylphenyl)pyrrolidine], the IC50 is under 30 nM.

As for `CC1(c2c(C(=O)N3CCC(c4ccccc4)(C(F)(F)F)C3)cnn2C2CCN(C(=O)Nc3ccccc3F)CC2)CC1` (stereo not drawn) [Example 135, 1-{1-[1-(2-fluorophenylcarbamoyl)piperidin-4-yl]-5-(1-methylcyclopropyl)-1H-pyrazole-4-carbonyl}-3-phenyl-3-trifluoromethylpyrrolidine], the IC50 is under 30 nM.

Take `O=C(Nc1ccccc1F)N1CCC(n2ncc(C(=O)N3CCC(c4cccnc4Cl)C3)c2C2CC2)CC1` (stereo not drawn) [Example 137, 3-(2-chloropyridin-3-yl)-1-{5-cyclopropyl-1-[1-(2-fluorophenylcarbamoyl)piperidin-4-yl]-1H-pyrazole-4-carbonyl}pyrrolidine]: the IC50 is under 30 nM.

For `CC1(c2c(C(=O)N3CCC(c4ccccc4C(F)(F)F)C3)cnn2[C@H]2CC[C@@H](C(=O)O)CC2)CC1` (stereo partly drawn) [Example 191, cis-4-{5-(1-methylcyclopropyl)-4-[3-(2-trifluoromethylphenyl)pyrrolidine-1-carbonyl]pyrazol-1-yl}cyclohexanecarboxylic acid], the IC50 was under 30 nM.

Consider `O=C1CN(C(=O)N2CCC(n3ncc(C(=O)N4CC[C@@H](c5ccccc5C(F)(F)F)C4)c3C3CC3)CC2)CCN1` [Example 26, 1-{5-cyclopropyl-1-[1-(3-oxopiperazine-1-carbonyl)piperidin-4-yl]-1H-pyrazole-4-carbonyl}-[(S)-3-(2-trifluoromethylphenyl)]pyrrolidine], for which the IC50 is under 30 nM.

As for `O=C(c1cnn(C2CCN(CC3(C(=O)NCCO)CC3)CC2)c1C1CC1)N1CC[C@@H](c2ccccc2C(F)(F)F)C1` [Example 107, 1-(5-cyclopropyl-1-{1-[1-(2-hydroxyethylcarbamoyl)cyclopropylmethyl]piperidin-4-yl}-1H-pyrazole-4-carbonyl)-[(S)-3-(2-trifluoromethylphenyl)]pyrrolidine hydrochloride], the IC50 is under 30 nM.

With `O=C(CO)N1CCC(n2ncc(C(=O)N3CC[C@@H](c4ccccc4C(F)(F)F)C3)c2C2CC2)CC1` [Example 65, 1-{5-cyclopropyl-1-[1-(2-hydroxyacetyl)piperidin-4-yl]-1H-pyrazole-4-carbonyl}-[(S)-3-(2-trifluoromethylphenyl)]pyrrolidine], the IC50 is under 30 nM.

Turning to `NC(=O)N[C@H]1CC[C@H](n2ncc(C(=O)N3CC[C@@H](c4ccccc4C(F)(F)F)C3)c2C2CC2)CC1` [Example 131, 1-[5-cyclopropyl-1-(trans-4-ureidocyclohexyl)-1H-pyrazole-4-carbonyl]-[(S)-3-(2-trifluoromethylphenyl)]pyrrolidine], the IC50 was under 30 nM.

Consider `O=C(c1cnn(C2CN(c3ccc(Cl)cn3)C2)c1C1CC1)N1CCC(c2ccccc2C(F)(F)F)C1` (stereo not drawn) [Example 173], for which the IC50 is under 30 nM.

Consider `CC(=O)N[C@@H](C)C(=O)N1CCC(n2ncc(C(=O)N3CC[C@@H](c4ccccc4C(F)(F)F)C3)c2C2CC2)CC1` [Example 71, 1-(1-{1-[(S)-2-acetylaminopropionyl]piperidin-4-yl}-5-cyclopropyl-1H-pyrazole-4-carbonyl)-[(S)-3-(2-trifluoromethylphenyl)]pyrrolidine], for which the concentration for half-maximal inhibition (IC50) is under 30 nM.

With `O=C(N[C@H](CO)c1ccccc1)N1CCC(n2ncc(C(=O)N3CC[C@@H](c4ccccc4C(F)(F)F)C3)c2C2CC2)CC1` [Example 51, 1-(5-cyclopropyl-1-{1-[(S)-2-hydroxy-1-phenylethylcarbamoyl]piperidin-4-yl}-1H-pyrazole-4-carbonyl)-[(S)-3-(2-trifluoromethylphenyl)]pyrrolidine], the IC50 was under 30 nM.

For `CC(C)N1CCN(C(=O)N2CCC(n3ncc(C(=O)N4CC[C@@H](c5ccccc5C(F)(F)F)C4)c3C3CC3)CC2)CC1` [Example 30, 1-{5-cyclopropyl-1-[1-(4-isopropylpiperazine-1-carbonyl)piperidin-4-yl]-1H-pyrazole-4-carbonyl}-[(S)-3-(2-trifluoromethylphenyl)]pyrrolidine hydrochloride], the IC50 was under 30 nM.

With `O=C(c1cnn(C2CCN(C(=O)N3CCC(O)CC3)CC2)c1C1CC1)N1CC[C@@H](c2ccccc2C(F)(F)F)C1` [Example 14, 1-{5-cyclopropyl-1-[1-(4-hydroxypiperidine-1-carbonyl)piperidin-4-yl]-1H-pyrazole-4-carbonyl}-[(S)-3-(2-trifluoromethylphenyl)]pyrrolidine], the IC50 was under 30 nM.

Consider `NCCNC(=O)N1CCC(n2ncc(C(=O)N3CC[C@@H](c4ccccc4C(F)(F)F)C3)c2C2CC2)CC1` [Example 11, 1-{1-[1-(2-aminoethylcarbamoyl)piperidin-4-yl]-5-cyclopropyl-1H-pyrazole-4-carbonyl}-[(S)-3-(2-trifluoromethylphenyl)]pyrrolidine hydrochloride], for which the IC50 was under 30 nM.

Regarding `COC1(c2c(C(=O)N3CCC(c4ccccc4C(F)(F)F)C3)cnn2C2CCN(C(=O)Nc3ccccc3F)CC2)CC1` (stereo not drawn) [Example 134, 1-{1-[1-(2-fluorophenylcarbamoyl)piperidin-4-yl]-5-(1-methoxycyclopropyl)-1H-pyrazole-4-carbonyl}-3-(2-trifluoromethylphenyl)pyrrolidine], the IC50 is under 30 nM.

As for `NC(=O)[C@H]1CC[C@H](n2ncc(C(=O)N3CC[C@@H](c4ccccc4C(F)(F)F)C3)c2C2CC2)CC1` [Example 130, 1-[1-(trans-4-carbamoylcyclohexyl)-5-cyclopropyl-1H-pyrazole-4-carbonyl]-[(S)-3-(2-trifluoromethylphenyl)]pyrrolidine], the IC50 is under 30 nM.

For `O=C(c1cnn(C2CCN(c3cnccn3)CC2)c1C1CC1)N1CC[C@@H](c2ccccc2C(F)(F)F)C1` [Example 129, 1-[5-cyclopropyl-1-(1-pyrazin-2-ylpiperidin-4-yl)-1H-pyrazole-4-carbonyl]-[(S)-3-(2-trifluoromethylphenyl)]pyrrolidine hydrochloride], the 50% inhibitory concentration (IC50) is under 30 nM.
